Laboratory results from patent US7078406B2, “Substituted diphenyloxazoles, the synthesis thereof, and the use thereof as fluorescence probes” (Johnson & Johnson Pharmaceutical Research & Development, …, priority 2001, dated 2006).
Entries after “also recorded” stand apart in the source; their conditions may differ.

Columns and labels:
PPAR-gamma = biological target: T1, PPAR-gamma (Homo sapiens, UniProt P37231); assay: Fluorescence curves on heating in a Thermofluor instrument (protein unfolding transition); details: 100 μM dye, 0.2 mg/mL protein, 25 mM HEPES pH 7.9, 200 mM NaCl, 5 mM dithiothreitol, 1 mM EDTA, 384-well plate
T1 sequence (P37231 1-505): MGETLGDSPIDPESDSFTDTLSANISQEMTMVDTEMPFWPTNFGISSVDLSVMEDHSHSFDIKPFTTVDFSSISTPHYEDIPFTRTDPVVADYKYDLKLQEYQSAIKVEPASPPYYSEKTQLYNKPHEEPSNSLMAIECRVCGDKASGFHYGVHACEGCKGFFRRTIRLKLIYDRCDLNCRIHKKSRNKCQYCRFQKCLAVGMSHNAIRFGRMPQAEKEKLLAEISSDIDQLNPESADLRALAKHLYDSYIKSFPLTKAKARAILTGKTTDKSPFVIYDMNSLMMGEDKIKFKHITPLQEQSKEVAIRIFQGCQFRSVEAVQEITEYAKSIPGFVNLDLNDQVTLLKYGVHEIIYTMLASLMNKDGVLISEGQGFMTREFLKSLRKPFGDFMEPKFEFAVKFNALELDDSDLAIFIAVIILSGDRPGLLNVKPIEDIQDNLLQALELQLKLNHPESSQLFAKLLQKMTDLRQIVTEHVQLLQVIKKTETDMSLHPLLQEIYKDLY
Text: FIG. 3 provides the individual fluorescent curves for three dyes 4-[5-(4-dimethylaminophenyl)oxazol-2-yl]-N-(2-guanidinoethyl)-benzene-sulfonamide, 5-(4″-dimethylaminophenyl)-2-(4′-phenyl)oxazole sulfonate, and 1,8-anilino-napthylene sulfonate) when analyzed in a Thermofluor® instrument using the protein PPAR-gamma as described in Example 3.
4-[5-(4-dimethylaminophenyl)oxazol-2-yl]-N-(2-guanidinoethyl)-benzenesulfonamide, 5-(4″-dimethylaminophenyl)-2-(4′-phenyl)oxazole sulfonate, and 1,8-anilino-napthylene sulfonate were mixed with a protein, PPAR-gamma, each in separate wells of a polypropylene 384-well plate. Each solution consisted of 100 μM of each dye mixed with 0.2 mg/mL protein in a buffer consisting of 25 mM HEPES pH 7.9, 200 mM NaCl, 5 mM dithiothreitol, and 1 mM EDTA. Individual fluorescence curves generated by heating to different temperatures in a Thermofluor® instrument are shown in FIG. 3.

[1] = Fluorescence emission spectra of the dye in different solvents; assay type: physicochemical; details: 10 μM dye; shifted from aqueous buffer (50 mM HEPES, pH7.5, 150 mM sodium chloride) to nonaqueous environment (MeOH, DMSO)
Description: FIG. 1A provides the fluorescence emission spectra of 4-[5-(4-dimethylaminophenyl)oxazol-2-yl]-N-(2-guanidinoethyl)-benzenesulfonamide in methanol and in dimethylsulfoxide. Also provided is the fluroescence emission spectrum of the buffer. FIG. 1B provides part of the spectrum of FIG. 1A, showing the range from 0 to 10,000 cps.
(§1) 4-[5-(4-dimethylaminophenyl)oxazol-2-yl]-N-(2-guanidinoethyl)-benzenesulfonamide was mixed with different solvents to yield a final dye concentration of 10 μM. The spectra of this dye in methanol (MeOH), dimethyl sulfoxide (DMSO), and aqueous buffer (50 mM HEPES, pH7.5, 150 mM sodium chloride) are shown in FIG. 1. This figure illustrates the marked enhancement in emission intensity (200–500 fold) observed for this dye when it is shifted from an aqueous environment to a nonaqueous environment. The 4-[5-(4-dimethylaminophenyl)oxazol-2-yl]-N-(2-guanidinoethyl)benzenesulfonamide was mixed with a 0.1 mg/mL solution of thrombin, a protein, in buffer (50 mM HEPES, pH7.5, 150 mM sodium chloride), to yield a final dye concentration of 10 μM. The fluorescence emission spectra of this solution were recorded both immediately after mixing and also following heating of the solution to 80° C. for 5 minutes.

thrombin = thrombin (Homo sapiens, UniProt P00734); assay: Fluorescence emission spectra of dye mixed with native and heat-unfolded thrombin; details: for emission maximum (comparison dyes): comparison value, conditions not stated
Description: FIG. 2 provides the fluorescence emission spectra of 4-[5-(4-dimethylaminophenyl)oxazol-2-yl]-N-(2-guanidinoethyl)-benzenesulfonamide (10 μM) mixed with thrombin (0.1 mg/mL) in buffer (50 mM HEPES, pH 7.5, 150 mM NaCl). The emission spectrum indicated by the squares was acquired with native (folded) thrombin, immediately after preparing the solution. The emission spectrum indicated by the triangles was obtained after heating the solution to 80° C. for five minutes to unfold the thrombin protein.
as §1

| SMILES | measurable unfolding transition of the protein (PPAR-gamma) | enhancement in emission intensity [1] | emission maximum of dye bound to unfolded protein (thrombin; 10 μM dye, 0.1 mg/mL thrombin, 50 mM HEPES pH7.5, 150 mM NaCl, after heating to 80° C. for 5 minutes) | change in fluorescence emission on binding to unfolded protein (thrombin; 10 μM dye, 0.1 mg/mL thrombin, after heating to 80° C. for 5 minutes vs native) | emission maximum (comparison dyes) (thrombin) |
| --- | --- | --- | --- | --- | --- |
| CN(C)c1ccc(-c2cnc(-c3ccc(S(=O)(=O)NCCNC(=N)N)cc3)o2)cc1 [4-[5-(4-dimethylaminophenyl)oxazol-2-yl]-N-(2-guanidinoethyl)benzenesulfonamide] | can be readily monitored | 200–500 fold | 520 nm | substantial enhancement in fluorescence emission; also recorded: increase in fluorescence emission | – |
| CN(C)c1ccc(-c2cnc(-c3ccc(S(=O)(=O)O)cc3)o2)cc1 [5-(4″-dimethylaminophenyl)-2-(4′-phenyl)oxazole sulfonate, reference compound] | fail to produce a measurable transition | – | – | – | approximately 460 nm |
| O=S(=O)(O)c1cccc2cccc(Nc3ccccc3)c12 [1,8-anilinonaphthylene sulfonate, reference compound] | fail to produce a measurable transition | – | – | – | approximately 460 nm |
